Experimental data published in ChEMBL document CHEMBL3045134, “Synthesis, molecular modeling and anti-inflammatory screening of new 1,2,3-benzotriazinone derivatives” (Med Chem Res, 2012).

Tests used:
[1] = tested on: Rattus norvegicus; experiment: Anti-inflammatory activity inRattus norvegicus albino (rat) assessed as reduction in carrageenan-induced paw edema at 10 mg/kg, ip administered 1 hr prior to carrageenan-induced measured 1 to 4 hr post challenge relative to indomethacin; assay type: functional; parameters: scale not given: the % may be the effect or the level left; conditions: route intraperitoneal
[2] = tested on: Rattus norvegicus; experiment: Anti-inflammatory activity carrageenan-induced paw edema in Rattus norvegicus albino (rat) assessed as paw thickness at 9 mg/kg, ip administered 1 hr prior to carrageenan-induced measured 4 hr post challenge; assay type: functional; conditions: route intraperitoneal
[3] = tested on: Rattus norvegicus; experiment: Anti-inflammatory activity carrageenan-induced paw edema inRattus norvegicus albino (rat) assessed as paw thickness at 9 mg/kg, ip administered 1 hr prior to carrageenan-induced measured 1 hr post challenge; assay type: functional; conditions: route intraperitoneal
[4] = tested on: Rattus norvegicus; experiment: Anti-inflammatory activity carrageenan-induced paw edema inRattus norvegicus albino (rat) assessed as paw thickness at 9 mg/kg, ip administered 1 hr prior to carrageenan-induced measured 2 hr post challenge; assay type: functional; conditions: route intraperitoneal
[5] = tested on: Rattus norvegicus; experiment: Ulcerogenicity in Rattus norvegicus albino (rat) at 0.9 mg/100 g/day, po qd for 3 successive days; assay type: toxicity, organism-based; conditions: in vivo
[6] = tested on: Rattus norvegicus; experiment: Anti-inflammatory activity carrageenan-induced paw edema in Rattus norvegicus albino (rat) at 9 mg/kg, ip administered 1 hr prior to carrageenan-induced measured 1 to 4 hr post challenge relative to control; assay type: functional; conditions: route intraperitoneal
[7] = tested on: Rattus norvegicus; experiment: Anti-inflammatory activity carrageenan-induced paw edema inRattus norvegicus albino (rat) assessed as paw thickness at 9 mg/kg, ip administered 1 hr prior to carrageenan-induced measured 3 hr post challenge; assay type: functional; conditions: route intraperitoneal
[8] = tested on: Rattus norvegicus; experiment: Anti-inflammatory activity carrageenan-induced paw edema in Rattus norvegicus albino (rat) at 10 mg/kg, ip administered 1 hr prior to carrageenan-induced measured 1 to 4 hr post challenge relative to control; assay type: functional; conditions: route intraperitoneal
[9] = tested on: Rattus norvegicus; experiment: Anti-inflammatory activity carrageenan-induced paw edema in Rattus norvegicus albino (rat) assessed as paw thickness at 10 mg/kg, ip administered 1 hr prior to carrageenan-induced measured 3 hr post challenge; assay type: functional; conditions: route intraperitoneal
[10] = tested on: Rattus norvegicus; experiment: Anti-inflammatory activity carrageenan-induced paw edema in Rattus norvegicus albino (rat) assessed as paw thickness at 10 mg/kg, ip administered 1 hr prior to carrageenan-induced measured 4 hr post challenge; assay type: functional; conditions: route intraperitoneal
[11] = tested on: Rattus norvegicus; experiment: Anti-inflammatory activity carrageenan-induced paw edema in Rattus norvegicus albino (rat) assessed as paw thickness at 10 mg/kg, ip administered 1 hr prior to carrageenan-induced measured 1 hr post challenge; assay type: functional; conditions: route intraperitoneal
[12] = tested on: Rattus norvegicus; experiment: Ulcerogenicity in Rattus norvegicus albino (rat) at 9 mg/kg/day, po qd for 3 successive days; assay type: toxicity, organism-based; parameters: route oral; conditions: in vivo
[13] = tested on: Rattus norvegicus; experiment: Anti-inflammatory activity carrageenan-induced paw edema in Rattus norvegicus albino (rat) assessed as paw thickness at 10 mg/kg, ip administered 1 hr prior to carrageenan-induced measured 2 hr post challenge; assay type: functional; conditions: route intraperitoneal

Row | SMILES | Activity [1] | Activity [2] | Activity [3] | Activity [4] | UI [5] | Activity [6] | Activity [7] | Activity [8] | Activity [9] | Activity [10] | Activity [11] | UI [12] | Activity [13]
1 | O=C(Cn1nnc2ccccc2c1=O)Nc1ccccc1 | 41.7838% | 3.8 mm | 4.5 mm | 4.25 mm | 300 | 58.22% | 4.1 mm | – | – | – | – | – | –
2 | Cc1cc(-c2ccccc2)n(C(=O)Cn2nnc3ccccc3c2=O)n1 | 54.2048% | 3.75 mm | 3.25 mm | 4.37 mm | 120 | 45.8% | 4.5 mm | – | – | – | – | – | –
3 | COc1ccccc1NC(=O)Cn1nnc2ccccc2c1=O | 52.1686% | 4.25 mm | 3.8 mm | 5.25 mm | 210 | 47.8314% | 4 mm | – | – | – | – | – | –
4 | COc1ccc2c(c1)c(CC(=O)O)c(C)n2C(=O)c1ccc(Cl)cc1 [INDOMETHACIN] | – | – | – | – | – | – | – | 100% | 3.25 mm | 3.75 mm | 2.12 mm | 450 | 2.25 mm
5 | COc1cccc(NC(=O)Cn2nnc3ccccc3c2=O)c1 | 38.7294% | 3.25 mm | 2.75 mm | 3.12 mm | 240 | 61.27% | 3.25 mm | – | – | – | – | – | –
6 | Cc1ccccc1NC(=O)Cn1nnc2ccccc2c1=O | 33.9238% | 4.25 mm | 4.4 mm | 4 mm | 240 | 66.08% | 4 mm | – | – | – | – | – | –
7 | O=c1c2ccccc2nnn1Cc1nnc(Nc2ccccc2)s1 | 29.3016% | 5.25 mm | 3.75 mm | 4.2 mm | 340 | 70.7% | 4.62 mm | – | – | – | – | – | –
8 | CC(=O)c1ccc(NC(=O)Cn2nnc3ccccc3c2=O)cc1 | 47.7499% | 4.37 mm | 3.87 mm | 3.87 mm | 130 | 52.25% | 3.37 mm | – | – | – | – | – | –
9 | Cc1ccc(NC(=O)Cn2nnc3ccccc3c2=O)cc1 | 36.7746% | 4.12 mm | 2.62 mm | 3.1 mm | 140 | 63.23% | 4 mm | – | – | – | – | – | –
10 | Cc1ccc(-c2cc(C(F)(F)F)nn2-c2ccc(S(N)(=O)=O)cc2)cc1 [CELECOXIB] | 57.0556% | 3.87 mm | 3.22 mm | 3.37 mm | – | 42.94% | 3.75 mm | – | – | – | – | 120 | –
11 | Cc1cc(C)n(C(=O)Cn2nnc3ccccc3c2=O)n1 | 33.313% | 3.75 mm | 2.12 mm | 2.75 mm | 140 | 66.69% | 3.5 mm | – | – | – | – | – | –
12 | Cc1ccc(C)n1NC(=O)Cn1nnc2ccccc2c1=O | 34.046% | 4.25 mm | 3.75 mm | 4.75 mm | 220 | 65.95% | 4.75 mm | – | – | – | – | – | –
13 | O=c1c2ccccc2nnn1Cc1nnc(Nc2ccccc2)o1 | 29.3016% | 5.25 mm | 3.75 mm | 4.2 mm | 340 | 70.7% | 4.62 mm | – | – | – | – | – | –
14 | O=C(Cn1nnc2ccccc2c1=O)N/N=c1/scc(-c2ccccc2)n1-c1ccccc1 | 45.9377% | 5.12 mm | 4 mm | 4.75 mm | 300 | 54.06% | 5 mm | – | – | – | – | – | –
